Laboratory results published in US8232299B2, “Phthalimide derivatives that influence cellular vesicular systems, pharmaceutical compositions, and use thereof” (Avidin Kft., priority 2007, dated 2012).

What was measured:
tumor necrosis factor = conditions: Japanese patent application JP10072346; cited from earlier work
[1] = Japanese patent JP10072346; cited from earlier work
human melanoma (HT168M1) = assay: subcutaneous melanoma tumor model; assay type: in vivo, CB17/scid mice; conditions: 40 mg/kg per os, once a day five days per week for 3 weeks from day 7; FIG. 8
Procedure: Slightly anesthetized (diethyl ether narcosis) adult male CB17/scid mice born with immunodeficiency were subcutaneously (s.c.) implanted with 8×10^5 cells from in vitro human melanoma (HT168M1) cultures. After tumor cell inoculation animals were randomly assigned into three groups and their ears were marked. From the 7th day after the tumor cell inoculation mice were treated once a day five days per week for 3 weeks with compound 2 (40 mg/kg), or with compound 3b (40 mg/kg) per os by gavage. Control animals were treated with appropriate dilution of the carrier (DMSO) in a similar manner with similar frequency. Body weight changes were monitored once a week for each animal. When subcutaneous tumor reached palpable size its dimensions were also detected with caliper. Tumor volume was estimated by the formula π/6×a×b^2, where “a” is the longer and “b” is the shorter diameter. 30 days after implantation animals were sacrificed by bleeding in Nembutal (75 mg/kg) anesthesia. Evaluation was based on the mass of the primary tumor.
In this experiment the effect of compound 2 and compound 3b was tested in oral administration at the same dose (40 mg/kg).

CC(C)c1cccc(C(C)C)c1N1C(=O)c2c(F)c(F)c(F)c(F)c2C1=O [Compound 2, 2-(2,6-diizopropylphenyl)-4,5,6,7-tetrafluorisoindolin-1,3-dione]
production of tumor necrosis factor (tumor necrosis factor): inhibits the production of tumor necrosis factor
anti-inflammatory effect [1]: has anti-inflammatory effect
effect on growth of the subcutaneous primary tumor (tumor mass) (human melanoma (HT168M1)): not significant
